From paper PMC12692147, “Surface Acoustic Waves-Based Molecular Recognition of a Collagen Receptor on Human Erythrocytes” (International Journal of Molecular Sciences, 2025)
“Also recorded” adds a separate entry of the source.

How the values were obtained:
[1] = tested on: α1β1 integrin; settings: cited from earlier work
From the text: (§1) Integrin-mediated binding is important for the metastatic dissemination of different types of cancer cells. […] Obtustatin is one of the shortest disintegrins yet described, containing 41 amino acids. It has a similar pattern of cysteines to the other disintegrin echistatin but with a KTS motif rather than a classic RGD in its active site. […] Echistatin is a 49-amino-acid peptide belonging to the disintegrins family derived from Echis carinatus snake venom. […] Obtustatin, comprising only 41 amino acid residues, is one of the shortest disintegrins characterized to date. It was purified from the venom of the Subcaucasian subspecies of the Levantine viper—Macrovipera ...

[2] = target: integrins in an immobilized erythrocyte ghost membrane; experiment: SAW biosensor binding of disintegrins to immobilized erythrocyte ghosts; set-up: species or system human; settings: for Kd / kon / koff: SAW (sam-X), erythrocyte ghosts immobilized via hydrophobic interactions (CH3-SAM), running buffer PBS pH 7.4, 25 °C, 20 μL/min, 1:1 binding model, experiments in triplicate; for Kd: KD = koff/kon; for kon: slope of kobs vs c, kobs of five channels averaged; for koff: y-intercept of kobs vs c; for KD (range in words): SAW, erythrocyte ghost membrane; for KD (range in words) / phase response on erythrocyte ghosts vs. unspecific binding to GUVs: result in words; for specificity of binding to erythrocyte ghost membrane: authors' conclusion in words; for phase response on erythrocyte ghosts vs. unspecific binding to GUVs: titration with increasing concentrations of disintegrins, GUVs (bovine brain phospholipids) on a parallel channel
Method: To detect disintegrin/erythrocyte ghost binding at the molecular level, a surface acoustic wave (SAW) biosensor was used (Figure 1). The machines of SAW instruments use a detection technology resembling a highly sensitive “weight detector”. Binding processes are measured by real mass changes on the surface. Basically, the sensor is a chip, whereby the surface is excited to oscillate acoustically. Acoustic waves are generated in the piezoelectric material and propagate laterally. Response to changes in the surface-bound material and configuration is achieved through a proprietary method that produces a modified oscillation. […] The phase of the wave is shifted on mass changes. A change in amplitude indicates viscoelastic and conformational characteristics. Both effects can be differentiated and detected independently for interaction analysis.
A similar amount of erythrocyte ghosts and GUVs were successfully immobilized on (1) positively poly-L-lysin charged 2D CM-dextran, (2) EDC/NHS-activated, negatively charged 2D CM-dextran, and (3) hydrophobic–CH3-SAM. The positively charged disintegrins were repelled from all charged surfaces; therefore, immobilization via hydrophobic interactions was chosen for the main core of experiments (Figure 2). Disintegrins were diluted in PBS to achieve similar immobilization levels; in a pre-experiment, all ligands were diluted 1:3, and then dilutions were adjusted. Experiments were performed in triplicate, starting with obtustatin, then echistatin, then vice versa. The baseline was stable; at immobilization of GUVs on a chip, a 14° phase shift was detected vs. 13.1° for the erythrocyte ghosts. In this set of experiments, GUVs formed from the phospholipid fraction of the bovine brain were used as a negative control for erythrocyte ghosts.
Based on the 1:1 binding model, a KD value was calculated depending on the fit model applied for the interaction of disintegrins with integrins in the erythrocyte ghosts. Data were obtained from sensor signals after the administration of increasing concentrations of disintegrins using the monomolecular growth model. The observed rate constants (kobs) were determined from the rising phase of the sensor response curves for each analyte concentration and plotted against the corresponding disintegrin concentrations. A linear regression was performed on the dataset according to the equationkobs = kon × c + koff where kon represents the association rate constant, koff is the dissociation rate constant, and c is the concentration of the injected analyte (see Figure 3C,D).
Erythrocyte membranes were obtained by the method of Dodge, Mitchell & Hanahan, as described. To obtain erythrocyte ghosts, after the last wash the RBC pellet was mixed with nine volumes of ice-cold lysis buffer (5 mM sodium phosphate) and stirred for 15 min at 0 °C. Subsequently, the unsealed erythrocyte ghosts were pelleted by centrifugation at 37,000× g for 10 min at 0 °C. After the centrifugation the ghosts were washed with ice-cold lysis buffer until residual hemoglobin was not visible. The RBC ghosts were suspended in about 0.5 volume of PBS and were kept frozen at −30 °C until use.
Biosensor investigations were performed using a sam®-X system Surface Acoustic Wave biosensor supplied by SAW instruments (GmbH, Bonn, Germany), as described before. Gold-coated sensors were incubated in a solution of 11-mercaptoundecanoic acid (10 mM) in ethanol abs. forming a self-assembled monolayer by binding of the sulfur headgroups to the gold surface ([…]). The carboxyl groups were activated with 200 mM N-ethyl-N-(dimethylaminopropyl)-carbodiimide (EDC) and 50 mM N-hydroxysuccinimide (NHS) to bind disintegrins and/or vesicles. An excess of activated unreacted NHS esters was blocked by 1 M ethanolamine (pH 8.5). Running buffer was PBS containing 2.7 mM potassium chloride and 137 mM sodium chloride (pH 7.4 at 25 °C); flow rate was 40/20 μL/min. […]

[3] = target: αVβ3 integrin (Homo sapiens) (UniProt P06756); settings: cited from earlier work
Sequence of UniProt P06756 (P06756 31-1048, chain 1 of 2): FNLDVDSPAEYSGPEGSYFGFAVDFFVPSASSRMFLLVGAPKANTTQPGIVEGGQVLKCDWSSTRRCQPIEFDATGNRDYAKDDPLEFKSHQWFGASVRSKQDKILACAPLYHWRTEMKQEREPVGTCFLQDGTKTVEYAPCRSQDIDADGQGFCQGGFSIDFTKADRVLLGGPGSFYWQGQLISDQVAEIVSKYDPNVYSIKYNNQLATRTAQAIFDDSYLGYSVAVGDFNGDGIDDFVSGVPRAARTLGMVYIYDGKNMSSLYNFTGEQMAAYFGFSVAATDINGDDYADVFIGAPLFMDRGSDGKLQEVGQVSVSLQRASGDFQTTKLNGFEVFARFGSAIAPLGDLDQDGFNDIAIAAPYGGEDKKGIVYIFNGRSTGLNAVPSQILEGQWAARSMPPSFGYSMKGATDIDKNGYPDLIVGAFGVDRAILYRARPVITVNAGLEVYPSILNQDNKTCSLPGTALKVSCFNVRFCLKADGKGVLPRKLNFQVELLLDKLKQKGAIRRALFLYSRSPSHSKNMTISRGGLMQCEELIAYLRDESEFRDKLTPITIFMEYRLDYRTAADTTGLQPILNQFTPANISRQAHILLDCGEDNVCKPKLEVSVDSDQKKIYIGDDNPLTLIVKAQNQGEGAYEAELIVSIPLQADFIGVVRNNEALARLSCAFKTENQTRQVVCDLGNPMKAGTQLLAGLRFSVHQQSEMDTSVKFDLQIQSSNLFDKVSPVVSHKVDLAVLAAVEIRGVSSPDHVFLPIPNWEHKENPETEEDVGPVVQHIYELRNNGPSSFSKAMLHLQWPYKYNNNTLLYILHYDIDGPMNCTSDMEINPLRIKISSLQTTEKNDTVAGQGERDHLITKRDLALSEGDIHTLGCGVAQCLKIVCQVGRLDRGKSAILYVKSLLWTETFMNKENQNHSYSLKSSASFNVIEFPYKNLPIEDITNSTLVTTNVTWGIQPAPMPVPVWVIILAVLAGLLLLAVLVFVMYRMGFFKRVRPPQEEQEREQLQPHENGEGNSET
Sequence of UniProt P06756 (P05106 27-788, chain 2 of 2, further chain): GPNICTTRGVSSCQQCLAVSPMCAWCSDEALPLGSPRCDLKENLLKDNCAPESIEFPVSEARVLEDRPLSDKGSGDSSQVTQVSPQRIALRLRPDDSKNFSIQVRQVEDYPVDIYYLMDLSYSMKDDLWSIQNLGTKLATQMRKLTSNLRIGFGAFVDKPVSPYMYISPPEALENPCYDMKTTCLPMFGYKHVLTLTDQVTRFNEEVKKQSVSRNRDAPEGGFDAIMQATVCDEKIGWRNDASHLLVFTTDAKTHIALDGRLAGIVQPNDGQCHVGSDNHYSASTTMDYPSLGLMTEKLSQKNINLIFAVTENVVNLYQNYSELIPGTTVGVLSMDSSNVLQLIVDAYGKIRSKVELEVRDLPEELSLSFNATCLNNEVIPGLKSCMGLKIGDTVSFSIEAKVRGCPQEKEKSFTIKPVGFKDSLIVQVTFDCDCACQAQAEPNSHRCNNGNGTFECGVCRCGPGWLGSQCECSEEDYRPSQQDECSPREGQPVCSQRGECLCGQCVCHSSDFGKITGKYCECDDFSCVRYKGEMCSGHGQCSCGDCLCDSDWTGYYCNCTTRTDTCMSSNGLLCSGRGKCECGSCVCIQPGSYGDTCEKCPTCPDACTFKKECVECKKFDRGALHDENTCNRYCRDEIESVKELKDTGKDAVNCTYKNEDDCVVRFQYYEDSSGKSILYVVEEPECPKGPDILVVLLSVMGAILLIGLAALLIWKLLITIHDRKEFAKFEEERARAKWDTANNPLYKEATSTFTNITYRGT

[4] = tested on: αVβ3 integrin; settings: cited from earlier work
From the text: as §1

[5] = tested on: platelet aggregation and cellular adhesion; settings: background statement; ref [14] (preceding sentence); cited from earlier work
From the text: Disintegrins are the large family of anti-adhesive proteins found in viper venom, whose structural and functional complexity contrasts with their small molecular size. Echistatin is a 49-amino-acid peptide belonging to the disintegrins family derived from Echis carinatus snake venom. […] Obtustatin, comprising only 41 amino acid residues, is one of the shortest disintegrins characterized to date. It was purified from the venom of the Subcaucasian subspecies of the Levantine viper—Macrovipera ...

[6] = stated in abstract without reference

Q: Which “α1β1 integrin blockade, selectivity” value ([1]; ref [17],[18],[19]) does the source give for “CTTGPCCRQCKLKPAGTTCW-----KTS--LTSHYCTGKSCDCPLYPG (disulfide) [Obtustatin]” here?
A: The value was “block α1β1 integrin in a highly selective manner”.

Q: And the “α1β1 integrin inhibition” value [1, 6]?
A: The value was “potent, irreversible, and selective inhibitors”.

Q: And the Kd [2]?
A: Its Kd is 232 nM.

Q: What about the kon [2] of the same substance?
A: Its kon is “(5.34 ± 0.9) × 10^3 M^−1 s^−1”.

Q: And the koff [2]?
A: The koff was “(1.238 ± 0.8) × 10^−3 s^−1”.

Q: What about the “KD (range in words)” value [2] of the same substance?
A: Its value is “mid-nanomolar range”.

Q: What about the “specificity of binding to erythrocyte ghost membrane” value [2] of the same substance?
A: The value was “specific molecular recognition for both disintegrins, but the higher response for obtustatin; also recorded: specific binding of the obtustatin with the erythrocyte ghost membrane in the 1:1 binding mode”.

Q: What about the “phase response on erythrocyte ghosts vs. unspecific binding to GUVs” value [2] of the same substance?
A: Its value is “the highest difference is observable”.

Q: Which Ki [3] does the source give for echistatin (from UniProt P17347) here?
A: The Ki was 0.27 nM.

Q: Which results are given for “ECESGPCCRNCKFLKEGTICKR—ARGD-DMDDYCNGKTCDCPRNPHKGPAT (disulfide) [Echistatin]”?
A: αVβ3 integrin antagonism ([4]; ref [20],[21],[22]): potent irreversible αVβ3 integrin antagonist; αvβ3 integrin inhibition [4, 6]: potent, irreversible, and selective inhibitors; inhibition of platelet aggregation and cellular adhesion [5]: highly effective inhibitor of platelet aggregation and cellular adhesion; Kd [2]: 2100 nM; kon [2]: (4.22 ± 0.002) × 10^2 M^−1 s^−1; koff [2]: (8.85 ± 0.03) × 10^−4 s^−1; KD (range in words) [2]: low micromolar range; specificity of binding to erythrocyte ghost membrane [2]: could be evidence of some unspecific binding; phase response on erythrocyte ghosts vs. unspecific binding to GUVs [2]: remarkably lower
